Values quoted from earlier work in patent publication US6338847B1, “Compositions and methods to disinfect contact lenses” (Allergan, priority 1993, dated 2002).

B1: lysozyme (protein, UniProt P61626 19-148, looked up)
Lysozyme C: KVFERCELARTLKRLGMDGYRGISLANWMCLAKWESGYNTRATNYNAGDRSTDYGIFQINSRYWCNDGKTPGAVNACHLSCSALLQDNIADAVACAKRVVRDPQGIRAWVAWRNRCQNRDVRQYVQGCGV
notes: cellulose and/or chitin decomposing enzyme component; a primary tear protein

System: cyst form of acanthamoeba

| Molecule | survival of cysts exposed to hydrogen peroxide (exposed for two hours) | time to killing all the cysts (lysozyme included in the hydrogen peroxide solution) [min] |
| --- | --- | --- |
| OO [hydrogen peroxide] | survived after two weeks | – |
| B1 | – | ≤ 30 |
